Test results as given in PubChem BioAssay AID256 (DTP/NCI, 2004).
Values joined by “and” are separate entries in the source; they are usually repeats but may differ in a detail not shown here. Identical values can stand only once. Toxic doses and inconclusive results are not listed.

Test system: CD2F1 mice, L1210 leukemia ip, survival T/C
Test: NCI In Vivo Anticancer Drug Screen. Data for tumor model L1210 Leukemia (intraperitoneal) in CD2F1 (CDF1) mice
Conditions: higher = longer survival
Method in brief: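 Tumor-bearing mice (transplanted tumor) were split into treated and vehicle control groups, and the measured endpoint of each treated group was divided by that of its vehicle controls.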

[1] = endpoint: mean survival time, dose: 1.56 mg/kg/injection, schedule: Q01DX009 (ip), vehicle: saline
[2] = endpoint: mean survival time, dose: 6.25 mg/kg/injection, schedule: Q01DX009 (ip), vehicle: saline

In the case of `O=CC(O)C(O)C(O)C(O)C(=O)O.[NH-]C1CCCCC1[NH-].[Pt+2]` (stereo not drawn), the T/C (endpoint: mean survival time, dose: 0.78 mg/kg/injection, schedule: Q01DX005 (ip), vehicle: saline) is reported as 156 % of control, the T/C (endpoint: mean survival time, dose: 1.56 mg/kg/injection, schedule: Q01DX005 (ip), vehicle: saline) is reported as 203 % of control and the T/C [1] is reported as 160 % of control. For the same compound, the T/C (endpoint: mean survival time, dose: 3.12 mg/kg/injection, schedule: Q01DX005 (ip), vehicle: saline) was 266 % of control, the T/C (endpoint: mean survival time, dose: 3.12 mg/kg/injection, schedule: Q04DX003 (ip), vehicle: saline) was 150 % of control and the T/C (endpoint: mean survival time, dose: 3.13 mg/kg/injection, schedule: Q01DX009 (ip), vehicle: saline) was 200 % of control. For the same compound, the T/C (endpoint: mean survival time, dose: 6.25 mg/kg/injection, schedule: Q01DX005 (ip), vehicle: saline) was 300 % of control, the T/C [2] was 167 % of control and the T/C (endpoint: mean survival time, dose: 6.25 mg/kg/injection, schedule: Q04DX003 (ip), vehicle: saline) was 280 % of control. For the same compound, the T/C (endpoint: mean survival time, dose: 12.5 mg/kg/injection, schedule: Q01DX005 (ip), vehicle: saline) was 103 % of control, the T/C (endpoint: mean survival time, dose: 12.5 mg/kg/injection, schedule: Q04DX003 (ip), vehicle: saline) was 301 % of control and the T/C (endpoint: mean survival time, dose: 25.0 mg/kg/injection, schedule: Q04DX003 (ip), vehicle: saline) was 231 % of control and 259 % of control. For the same compound, the T/C (endpoint: mean survival time, dose: 50.0 mg/kg/injection, schedule: Q04DX003 (ip), vehicle: saline) was 108 % of control, the T/C (endpoint: median survival time, dose: 1.02 mg/kg/injection, schedule: Q01DX009 (ip), vehicle: saline) was 160 % of control and 170 % of control and the T/C (endpoint: median survival time, dose: 1.37 mg/kg/injection, schedule: Q01DX009 (ip), vehicle: saline) was 170 % of control and 180 % of control. For the same compound, the T/C (endpoint: median survival time, dose: 1.56 mg/kg/injection, schedule: Q01DX009 (ip), vehicle: saline) was 236 % of control, the T/C (endpoint: median survival time, dose: 2.09 mg/kg/injection, schedule: Q01DX009 (ip), vehicle: saline) was 189 % of control and 714 % of control and the T/C (endpoint: median survival time, dose: 3.12 mg/kg/injection, schedule: Q01DX009 (ip), vehicle: saline) was 188 % of control and 253 % of control and 261 % of control. For the same compound, the T/C (endpoint: median survival time, dose: 6.25 mg/kg/injection, schedule: Q01DX009 (ip), vehicle: saline) was 119 % of control, the T/C (endpoint: median survival time, dose: 6.25 mg/kg/injection, schedule: Q04DX003 (ip), vehicle: saline) was 101 % of control and the T/C (endpoint: median survival time, dose: 12.5 mg/kg/injection, schedule: Q01DX009 (ip), vehicle: saline) was 90 % of control. For the same compound, the T/C (endpoint: median survival time, dose: 12.5 mg/kg/injection, schedule: Q04DX003 (ip), vehicle: saline) was 100 % of control, the T/C (endpoint: median survival time, dose: 12.5 mg/kg/injection, schedule: Q04DX003 (iv), vehicle: saline) was 123 % of control and the T/C (endpoint: median survival time, dose: 25.0 mg/kg/injection, schedule: Q04DX003 (ip), vehicle: saline) was 103 % of control. For the same compound, the T/C (endpoint: median survival time, dose: 50.0 mg/kg/injection, schedule: Q04DX003 (iv), vehicle: saline) was 365 % of control and the T/C (endpoint: median survival time, dose: 100.0 mg/kg/injection, schedule: Q04DX003 (ip), vehicle: saline) was 113 % of control.
With `CC(=O)NC1=CC(=O)C(C)=CC1=O` the T/C (endpoint: mean survival time, dose: 5.0 mg/kg/injection, schedule: Q01DX001 (ip), vehicle: saline) was 98 % of control and the T/C (endpoint: mean survival time, dose: 10.0 mg/kg/injection, schedule: Q01DX001 (ip), vehicle: saline) was 98 % of control.
With `CC(=O)C1CCC2C3CC=C4CC(n5c(=O)cc[nH]c5=O)CCC4(C)C3CCC12C` (stereo not drawn) the T/C (endpoint: mean survival time, dose: 12.5 mg/kg/injection, schedule: Q04DX003 (ip), vehicle: Klucel (hydroxypropylcellulose) (HPC)) was 97 % of control, the T/C (endpoint: mean survival time, dose: 25.0 mg/kg/injection, schedule: Q04DX003 (ip), vehicle: Klucel (hydroxypropylcellulose) (HPC)) was 98 % of control and the T/C (endpoint: mean survival time, dose: 50.0 mg/kg/injection, schedule: Q04DX003 (ip), vehicle: Klucel (hydroxypropylcellulose) (HPC)) was 101 % of control and 103 % of control. The T/C (endpoint: mean survival time, dose: 100.0 mg/kg/injection, schedule: Q04DX003 (ip), vehicle: Klucel (hydroxypropylcellulose) (HPC)) was 92 % of control and 101 % of control, the T/C (endpoint: mean survival time, dose: 200.0 mg/kg/injection, schedule: Q04DX003 (ip), vehicle: Klucel (hydroxypropylcellulose) (HPC)) was 95 % of control and the T/C (endpoint: mean survival time, dose: 400.0 mg/kg/injection, schedule: Q04DX003 (ip), vehicle: Klucel (hydroxypropylcellulose) (HPC)) was 90 % of control.
`OCC1OC(n2cnc3cncnc32)C(O)C1O` (stereo not drawn) was tested, and the T/C (endpoint: mean survival time, dose: 0.78 mg/kg/injection, schedule: Q01DX009 (ip), vehicle: saline) was 94 % of control and 102 % of control, the T/C [1] was 106 % of control and 112 % of control and the T/C (endpoint: mean survival time, dose: 3.12 mg/kg/injection, schedule: Q01DX009 (ip), vehicle: saline) was 103 % of control and 106 % of control. The T/C [2] was 118 % of control and 89 % of control, the T/C (endpoint: mean survival time, dose: 12.5 mg/kg/injection, schedule: Q01DX009 (ip), vehicle: saline) was 106 % of control and the T/C (endpoint: mean survival time, dose: 25.0 mg/kg/injection, schedule: Q01DX009 (ip), vehicle: saline) was 119 % of control and 101 % of control.
For `Cc1cc(N/N=C/c2ccccn2)nc2ccccc12`, the T/C (endpoint: median survival time, dose: 6.25 mg/kg/injection, schedule: Q01DX009 (ip), vehicle: Klucel (hydroxypropylcellulose) (HPC)) was 102 % of control, the T/C (endpoint: median survival time, dose: 12.5 mg/kg/injection, schedule: Q01DX009 (ip), vehicle: Klucel (hydroxypropylcellulose) (HPC)) was 100 % of control and the T/C (endpoint: median survival time, dose: 25.0 mg/kg/injection, schedule: Q01DX009 (ip), vehicle: Klucel (hydroxypropylcellulose) (HPC)) was 97 % of control. For the same compound, the T/C (endpoint: median survival time, dose: 50.0 mg/kg/injection, schedule: Q01DX009 (ip), vehicle: Klucel (hydroxypropylcellulose) (HPC)) was 110 % of control.
In the case of `CCCCCCCCNC(=O)CC`, the T/C (endpoint: mean survival time, dose: 100.0 mg/kg/injection, schedule: Q01DX001 (ip), vehicle: saline) is reported as 103 % of control, the T/C (endpoint: mean survival time, dose: 100.0 mg/kg/injection, schedule: Q01DX009 (ip), vehicle: saline) is reported as 94 % of control and the T/C (endpoint: mean survival time, dose: 100.0 mg/kg/injection, schedule: Q04DX003 (ip), vehicle: saline) is reported as 97 % of control. For the same compound, the T/C (endpoint: mean survival time, dose: 200.0 mg/kg/injection, schedule: Q01DX001 (ip), vehicle: saline) was 100 % of control, the T/C (endpoint: mean survival time, dose: 200.0 mg/kg/injection, schedule: Q01DX009 (ip), vehicle: saline) was 94 % of control and the T/C (endpoint: mean survival time, dose: 200.0 mg/kg/injection, schedule: Q04DX003 (ip), vehicle: saline) was 101 % of control. For the same compound, the T/C (endpoint: mean survival time, dose: 400.0 mg/kg/injection, schedule: Q01DX001 (ip), vehicle: saline) was 100 % of control, the T/C (endpoint: mean survival time, dose: 400.0 mg/kg/injection, schedule: Q01DX009 (ip), vehicle: saline) was 92 % of control and the T/C (endpoint: mean survival time, dose: 400.0 mg/kg/injection, schedule: Q04DX003 (ip), vehicle: saline) was 98 % of control.
